In ChEMBL document CHEMBL1201862, “PubChem BioAssay data set” (2004):
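Briefly, cells in 96-well plates were exposed to five compound concentrations for 48 h, and endpoints were estimated by linear interpolation. GI50: concentration for 50% inhibition of growth.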 Activity calls are given as the source filed them. No stated cut-off is given here; in the data, active = GI50 up to about 1.1 µM and inactive = higher.

Legend:
Assay in all cases: NCI-60 cell line screen, 48 h
SK-MEL-5 = system: SK-MEL-5
SK-MEL-28 = system: SK-MEL-28
SF-539 = system: SF-539
HCC 2998 = system: HCC 2998
UACC-62 = system: UACC-62
RXF 393 = system: RXF 393
T47D = system: T47D
SR = system: SR
BT-549 = system: BT-549
NCI-H23 = system: NCI-H23
IGROV-1 = system: IGROV-1
ACHN = system: ACHN
SF-268 = system: SF-268
A549 = system: A549
K562 = system: K562
EKVX = system: EKVX
PC-3 = system: PC-3
U-251 = system: U-251
A498 = system: A498
UO-31 = system: UO-31
NCI/ADR-RES = system: NCI/ADR-RES
SNB-19 = system: SNB-19
LOX IMVI = system: LOX IMVI
MDA-N = system: MDA-N
CAKI-1 = system: CAKI-1
KM12 = system: KM12
MDA-MB-435 = system: MDA-MB-435
MCF7 = system: MCF7
DU-145 = system: DU-145
SK-OV-3 = system: SK-OV-3
M14 = system: M14
SNB-75 = system: SNB-75
OVCAR-3 = system: OVCAR-3
HT-29 = system: HT-29
SW-620 = system: SW-620
HCT-15 = system: HCT-15
MDA-MB-231 = system: MDA-MB-231
COLO 205 = system: COLO 205
786-0 = system: 786-0
HCT-116 = system: HCT-116
UACC-257 = system: UACC-257
SN12C = system: SN12C
SF-295 = system: SF-295
NCI-H460 = system: NCI-H460
HOP-92 = system: HOP-92
Malme-3M = system: Malme-3M
TK-10 = system: TK-10
OVCAR-4 = system: OVCAR-4
RPMI-8226 = system: RPMI-8226
NCI-H226 = system: NCI-H226
MOLT-4 = system: MOLT-4
OVCAR-8 = system: OVCAR-8
NCI-H522 = system: NCI-H522
HOP-62 = system: HOP-62
Hs-578T = system: Hs-578T
CCRF-CEM = system: CCRF-CEM
HL-60 = system: HL-60
OVCAR-5 = system: OVCAR-5
SK-MEL-2 = system: SK-MEL-2

O=[N+]([O-])C(=C(N1CCCCC1)N1CCCCC1)/C(Cl)=C(\Cl)Br
GI50 (SK-MEL-5): 21 µM (inactive)
GI50 (SK-MEL-28): 19.5 µM (inactive)
GI50 (SF-539): 24.4 µM (inactive)
GI50 (HCC 2998): 17.5 µM (inactive)
GI50 (UACC-62): 10.7 µM (inactive)
GI50 (RXF 393): 20.5 µM (inactive)
GI50 (T47D): 25.2 µM (inactive)
GI50 (SR): 5.93 µM (inactive)
GI50 (BT-549): 33.8 µM (inactive)
GI50 (NCI-H23): 18.7 µM (inactive)
GI50 (IGROV-1): 25.8 µM (inactive)
GI50 (ACHN): 24.9 µM (inactive)
GI50 (SF-268): 29.6 µM (inactive)
GI50 (A549): 32.7 µM (inactive)
GI50 (K562): 18.3 µM (inactive)
GI50 (EKVX): 16.4 µM (inactive)
GI50 (PC-3): 22.9 µM (inactive)
GI50 (U-251): 18.7 µM (inactive)
GI50 (A498): 21.5 µM (inactive)
GI50 (UO-31): 34.5 µM (inactive)
GI50 (NCI/ADR-RES): 27.2 µM (inactive)
GI50 (SNB-19): 26.4 µM (inactive)
GI50 (LOX IMVI): 16.1 µM (inactive)
GI50 (MDA-N): 29.2 µM (inactive)
GI50 (CAKI-1): 13.3 µM (inactive)
GI50 (KM12): 23.1 µM (inactive)
GI50 (MDA-MB-435): 20.5 µM (inactive)
GI50 (MCF7): 21.9 µM (inactive)
GI50 (DU-145): 30.8 µM (inactive)
GI50 (SK-OV-3): 48.1 µM (inactive)
GI50 (M14): 20.6 µM (inactive)
GI50 (SNB-75): 16.6 µM (inactive)
GI50 (OVCAR-3): 29.3 µM (inactive)
GI50 (HT-29): 29.7 µM (inactive)
GI50 (SW-620): 15.6 µM (inactive)
GI50 (HCT-15): 16.4 µM
GI50 (MDA-MB-231): 27.2 µM (inactive)
GI50 (COLO 205): 20.3 µM (inactive)
GI50 (786-0): 23.9 µM (inactive)
GI50 (HCT-116): 14.2 µM (inactive)
GI50 (UACC-257): 23.8 µM (inactive)
GI50 (SN12C): 29.7 µM (inactive)
GI50 (SF-295): 54.5 µM (inactive)
GI50 (NCI-H460): 21 µM (inactive)
GI50 (HOP-92): 19.4 µM (inactive)
GI50 (Malme-3M): 28.2 µM (inactive)
GI50 (TK-10): 25.5 µM (inactive)
GI50 (OVCAR-4): 24 µM (inactive)
GI50 (RPMI-8226): 17.1 µM (inactive)
GI50 (NCI-H226): 20.8 µM (inactive)
GI50 (MOLT-4): 18.7 µM (inactive)
GI50 (OVCAR-8): 16.4 µM (inactive)
GI50 (NCI-H522): 18.1 µM (inactive)
GI50 (HOP-62): 44.7 µM (inactive)
GI50 (Hs-578T): 0.871 µM (active)
GI50 (CCRF-CEM): 11.1 µM (inactive)
GI50 (HL-60): 15.2 µM (inactive)

O=S(=O)(CC#CCS(=O)(=O)c1ccccc1)c1ccccc1
GI50 (SK-MEL-5): 4.9 µM (inactive)
GI50 (SK-MEL-28): 7.46 µM (inactive)
GI50 (SF-539): 2.48 µM (inactive)
GI50 (HCC 2998): 18.7 µM (inactive)
GI50 (UACC-62): 3.55 µM (inactive)
GI50 (RXF 393): 1.67 µM (inactive)
GI50 (T47D): 1.95 µM (inactive)
GI50 (SR): 2.66 µM (inactive)
GI50 (BT-549): 3.13 µM (inactive)
GI50 (NCI-H23): 2.98 µM (inactive)
GI50 (IGROV-1): 1.44 µM (inactive)
GI50 (ACHN): 1.79 µM (inactive)
GI50 (SF-268): 4.35 µM (inactive)
GI50 (A549): 19.1 µM (inactive)
GI50 (K562): 1.58 µM (inactive)
GI50 (EKVX): 5.09 µM (inactive)
GI50 (PC-3): 7.45 µM (inactive)
GI50 (U-251): 8.55 µM (inactive)
GI50 (A498): 16.1 µM (inactive)
GI50 (OVCAR-5): 4.63 µM (inactive)
GI50 (UO-31): 1.42 µM (inactive)
GI50 (NCI/ADR-RES): 3.72 µM (inactive)
GI50 (SNB-19): 16.3 µM (inactive)
GI50 (LOX IMVI): 1.51 µM (inactive)
GI50 (MDA-N): 1.77 µM (inactive)
GI50 (CAKI-1): 1.77 µM (inactive)
GI50 (KM12): 12.4 µM (inactive)
GI50 (MDA-MB-435): 1.72 µM (inactive)
GI50 (MCF7): 1.99 µM (inactive)
GI50 (DU-145): 4.91 µM (inactive)
GI50 (SK-OV-3): 13.4 µM (inactive)
GI50 (M14): 1.86 µM (inactive)
GI50 (SNB-75): 1.48 µM (inactive)
GI50 (OVCAR-3): 1.55 µM (inactive)
GI50 (HT-29): 6.68 µM (inactive)
GI50 (SW-620): 0.891 µM (active)
GI50 (HCT-15): 1.35 µM
GI50 (MDA-MB-231): 11.6 µM (inactive)
GI50 (COLO 205): 1.95 µM (inactive)
GI50 (786-0): 0.973 µM (active)
GI50 (HCT-116): 1.01 µM (active)
GI50 (UACC-257): 4.32 µM (inactive)
GI50 (SN12C): 4.28 µM (inactive)
GI50 (SF-295): 18.5 µM (inactive)
GI50 (NCI-H460): 12.6 µM (inactive)
GI50 (HOP-92): 1.61 µM (inactive)
GI50 (Malme-3M): 1.9 µM (inactive)
GI50 (TK-10): 2.72 µM (inactive)
GI50 (OVCAR-4): 1.84 µM (inactive)
GI50 (RPMI-8226): 1.23 µM (inactive)
GI50 (SK-MEL-2): 5.69 µM (inactive)
GI50 (NCI-H226): 14.6 µM (inactive)
GI50 (MOLT-4): 0.959 µM (active)
GI50 (OVCAR-8): 1.76 µM (inactive)
GI50 (NCI-H522): 0.659 µM (active)
GI50 (HOP-62): 5.71 µM (inactive)
GI50 (Hs-578T): 5.14 µM (inactive)
GI50 (CCRF-CEM): 0.0982 µM (active)
GI50 (HL-60): 3.1 µM (inactive)
